Experiment [1] has as its system Monoclonal antibody 11D10-4. Description: ELISA reactivity of synthetic peptides with monoclonal antibody 11D10-4. The experiment is classed as binding. As to conditions: reciprocal of the dilution giving a 50% end point. The method, then: (§1) The reactivity and specificity of the synthetic peptides were determined by ELISA using either anti-VP7 monospecific VP7 serum or monoclonal antibodies specific for the various regions of VP7 and by adsorption blocking assays. […] As shown in the table, while all of the peptides were immunoreactive with the antiserum, only the peptides representing positions 247-259 and 275-295 were specifically immunoreactive with monoclonals directed to particular determinants.
(§2) ^a Antibody titers were determined by ELISA and are expressed as the
(§3) reciprocal of the dilution giving a 50% end point.

In experiment [2] the test system is Monospecific anti-glycoprotein (VP7) serum. The experiment can be described thus: ELISA reactivity of synthetic peptides with monospecific anti-VP7 serum. The format is binding. The conditions noted are these: reciprocal of the dilution giving a 50% end point. The method, then:
as §1, §2, §3

For experiment [3], the system named is Monoclonal antibody 4B5-5. The experiment can be described thus: ELISA reactivity of synthetic peptides with monoclonal antibody 4B5-5. The format is binding. As to conditions: reciprocal of the dilution giving a 50% end point. On the procedure:
as §1, §2, §3

Experiment [4] has as its system Monoclonal antibody 10D207. The experiment can be described thus: ELISA reactivity of synthetic peptides with monoclonal antibody 10D207. The experiment is classed as binding. The conditions noted are these: reciprocal of the dilution giving a 50% end point. On the procedure:
as §1, §2, §3

The test system of experiment [5] is Monoclonal antibody 11D12-6. The experiment can be described thus: ELISA reactivity of synthetic peptides with monoclonal antibody 11D12-6. The conditions noted are these: reciprocal of the dilution giving a 50% end point. The format is binding. On the procedure: as §1, §2, §3
Experiment [6] deals with virus attachment to MA104 cells. The experiment can be described thus: Adsorption blocking assay: inhibition of attachment of virus to MA104 cells. The conditions noted are these: FIG. 5. The format is cell-based. The method, then:
as §1

Experiment [7] deals with bovine rotavirus isolate C486. Description: 50% plaque reduction assay on sera of mice immunized with KLH-conjugated VP7 peptides. The experiment is classed as in vivo, CD-1 mice. The conditions noted are these: sera of mice given KLH-conjugated peptides; FIG. 7. On the procedure:
The sera obtained in Example 3 were tested for their ability to neutralize the infectivity of the bovine rotavirus isolate C486 using a standard 50% plaque reduction assay. In this assay, virus dilutions representing 30-50 PFU were mixed 1:1 with various dilutions of antibody and incubated for 1 hour at 37° C. Virus attachment to MA104 monolayers was allowed to proceed at 37° C. for 2 hours before the virus inoculum was removed; the cells were washed with MEM and then overlaid with 1.6% Bacto-agar (Difco) diluted in MEM and supple-mented with 5 μg of pancreatin per ml, 0.7% of a 1:1000 neutral red stock solution, and 0.1% DEAE-dextran. Plaques appeared after 5 to 6 days of incubation at 37° C.

The test system of experiment [8] is trypsin. Description: Trypsin susceptibility and competition with intact VP4 for trypsin. The experiment is classed as biochemical. The conditions noted are these: for cleavage of VP4 by trypsin in presence of peptide: FIG. 8. On the procedure:
Susceptibility of the synthetic peptide to trypsin was confirmed by reaction with trypsin followed by electrophoresis. […] It was also established that the peptide could compete with intact VP4 for the enzyme. This was determined by measuring the ability of increasing concentrations of the synthetic peptide to reduce the amount of VP4 cleaved into the two products of molecular weight 60 kd and 28 kd.

For experiment [9], the system named is BRV strain C486. Description: Prophylactic oral 232-255 peptide in neonatal mice before challenge. On the set-up: key to Diarrheal Score: 0: no sign of diarrhea in live mice, or on necropsy; +: no external signs of diarrhea but semi-liquid colon contents at autopsy; ++: fluid was apparent on palpation of the abdomen and the colon was filled with liquid feces and gas; +++: the external anal region was soiled with feces and intestinal fluid was present on palpation; ++++: liquid feces were present around the anal region and on palpation of the abdomen intestinal fluid was present and oozed from the anus; severe dehydration, internal liquid content in colon and caecum and distention due to accumulation of gas. The format is in vivo. The conditions noted are these: for Diarrheal Score: about one hour before 10^4 pfu; for Virus Titre: mouse intestines; for Plasma D-Xylose: no challenge: 119. On the procedure: The 232-255 peptide synthesized in Example 7 was diluted serially in Eagle's Minimal Essential Medium. The peptide solutions of various dilutions were administered in 100 μl dosages to neonatal mice by oral administration. The pups were born of rotavirus-free strain CD-1 dams and administration was at 7 days of age (when the pups weigh about 4 g). Approximately one hour later the mice were challenged with 10^4 pfu of BRV strain C486. Clinical protection was scored as described in Example 6. Diarrhea was scored clinically as well as on necropsy, and plasma D-xylose was determined by administering 100 μl of 5% w/v D-xylose solution, sacrificing the mice two hours later, collecting the blood and determining plasma D-xylose concentration as described above. Virus titers were determined in the mouse intestines by suspending in MEM and homogenizing for virus titration. Mice which received no challenge had plasma D-xylose levels of 119 μg/100 μl and zero viral titers.

The test system of experiment [10] is VP6 45 kd capsid protein. The experiment can be described thus: Binding of 232-255 peptide to VP6 of purified virus (laddering on polyacrylamide gel electrophoresis). An excerpt:
Laddering occurred both at the VP6 monomeric molecular weight of 45 kd and at the aggregate molecular weights of 90 kd and 135 kd regions. The increment in the ladder steps matched the MW of the 232-255 peptide. Trypsin treatment of the virus/peptide complex reduced the ladder to a virus profile identical with that of the trypsin-treated virus. The ladder could be detected with antisera produced against the synthetic peptide.

In experiment [11] the test system is infectious virus on MA104 cells. The experiment can be described thus: Plaque reduction by 232-255 peptide mixed with infectious virus on MA104 cells. The format is cell-based. The conditions noted are these: 100 pfu virus with 100 μg, 200 μg and 300 μg peptide. On the procedure:
In a protocol similar to a standard plaque reduction assay, MA104 cells were treated with 100 pfu of the virus in the absence of and in the presence of 100 μg, 200 μg and 300 μg of the 232-255 peptide.

Results on three sequences are retold here after patent US6086880A, “Rotavirus peptide compositions and methods of use” (The University of Saskatchewan, priority 1993, dated 2000).

No end group written: not given here.

On to YQQTDEANK [p174-183], for which, in experiment [1], the “Antibody titer (ELISA), monoclonal antibody 11D10-4 with synthetic peptide” value is reported as 10. The “Antibody titer (ELISA), monospecific anti-glycoprotein (VP7) serum with synthetic peptide” value in [2] is reported as 2,500. In addition, in experiment [3], the “Antibody titer (ELISA), monoclonal antibody 4B5-5 with synthetic peptide” value turned out to be 50. In addition, the “Antibody titer (ELISA), monoclonal antibody 10D207 with synthetic peptide” value in [4] came to 10. In experiment [5], the “Antibody titer (ELISA), monoclonal antibody 11D12-6 with synthetic peptide” value worked out at 10.

For the sequence RNCKKLGPRENVA [p247-259], the “Antibody titer (ELISA), monoclonal antibody 11D10-4 with synthetic peptide” value in [1] is 4,000. Moreover, the “Antibody titer (ELISA), monospecific anti-glycoprotein (VP7) serum with synthetic peptide” value in experiment [2] is reported as 1,000. For the same sequence, the “Antibody titer (ELISA), monoclonal antibody 4B5-5 with synthetic peptide” value in [3] is on record as 5,000. In addition, the “Antibody titer (ELISA), monoclonal antibody 10D207 with synthetic peptide” value in [4] was determined as 20. The “ability to inhibit attachment of virus to MA104 cells” value in experiment [6] is on record as “able to block virus attachment”. Besides, in [7], the “virus-neutralizing antibodies induced (50% plaque reduction assay)” value is given as “induced virus-neutralizing antibodies”. Besides, in [5], the “Antibody titer (ELISA), monoclonal antibody 11D12-6 with synthetic peptide” value is recorded as 100.

As for “NIAPASIVSRNIVYTRAQPNDIA [Peptide 232-255]”, the “cleavage of VP4 by trypsin in presence of peptide” value in experiment [8] (25 μg (232-255)/25 μg VP4) is on record as “complete cleavage of VP4”; in experiment [8] (synthetic peptide increased to 200 μg) it was “intact VP4 is evident”. For the same sequence, in experiment [8] (reaction with trypsin followed by electrophoresis), the “susceptibility of the peptide to trypsin” value is listed as “cleaved by trypsin in a dose-dependent manner”. For the same sequence, the “Diarrheal Score” value is recorded as “+++” in experiment [9] (100 μg peptide oral), “++” in [9] (250 μg peptide oral), 0 in experiment [9] (500 μg peptide oral) and 0 in experiment [9] (1000 μg peptide oral). Further, the “Virus Titre” value was 1.2 × 10^3 PFU/ml in [9] (100 μg peptide oral), 4.0 × 10^2 PFU/ml in [9] (250 μg peptide oral), 0 PFU/ml in experiment [9] (500 μg peptide oral) and 0 PFU/ml in experiment [9] (1000 μg peptide oral). Besides, the “Plasma D-Xylose” value in experiment [9] (100 μg peptide oral) came to 92 μg/100 μl; in experiment [9] (250 μg peptide oral), 70 μg/100 μl; in experiment [9] (500 μg peptide oral), 101 μg/100 μl; in [9] (1000 μg peptide oral) it was 112 μg/100 μl. Moreover, the “laddering of VP6 on polyacrylamide gel electrophoresis” value is reported as “laddering was not apparent” in experiment [10] (25 μg peptide with 2 μg purified virus) and “showed a laddering effect” in experiment [10] (100 μg peptide with 2 μg purified virus, 30 minutes at 37° C.). Moreover, the plaque reduction result in experiment [11] is “capable of plaque reduction in a dose-dependent manner”.
